Reference: the NIST ThermoML archive (doi:10.1016/j.jct.2016.11.009)

Assay: xn = mol fraction of the nth substance listed
Settings: Fluid (supercritical or subcritical phases), Buoyancy - hydrostatic balance with magnetic suspension - one sinker

C [methane] + O=C=O
Settings	mass density [kg/m3]
303.29 K, 11998 kPa, x2 = 0.8988	626.792
303.29 K, 15006 kPa, x2 = 0.3997	237.974
305.01 K, 18003 kPa, x2 = 0.8988	732.397
305.04 K, 7997 kPa, x2 = 0.8988	244.829
305.06 K, 9978 kPa, x2 = 0.8988	474.418
305.08 K, 11001 kPa, x2 = 0.3997	159.477
305.09 K, 12002 kPa, x2 = 0.0998	107.694
305.1 K, 4001 kPa, x2 = 0.3997	47.504
305.1 K, 17995 kPa, x2 = 0.6015	408.107
305.11 K, 3997 kPa, x2 = 0.7985	72.035
305.11 K, 5997 kPa, x2 = 0.0998	49.434
305.11 K, 6003 kPa, x2 = 0.7985	122.855
305.12 K, 3998 kPa, x2 = 0.8988	79.325
305.12 K, 5006 kPa, x2 = 0.7985	95.778
305.13 K, 6992 kPa, x2 = 0.0998	58.605
305.13 K, 6994 kPa, x2 = 0.8988	182.804
305.13 K, 9002 kPa, x2 = 0.0998	77.799
305.13 K, 11012 kPa, x2 = 0.6015	223.4
305.13 K, 14994 kPa, x2 = 0.3997	233.75
305.14 K, 5001 kPa, x2 = 0.6015	76.729
305.14 K, 14994 kPa, x2 = 0.7985	546.063
305.15 K, 3979 kPa, x2 = 0.6015	58.587
305.15 K, 6000 kPa, x2 = 0.6015	96.024
305.15 K, 7998 kPa, x2 = 0.0998	68.122
305.15 K, 9004 kPa, x2 = 0.6015	165.984
305.15 K, 11001 kPa, x2 = 0.2017	116.026
305.15 K, 11998 kPa, x2 = 0.2017	128.322
305.15 K, 12006 kPa, x2 = 0.3997	178.104
305.16 K, 3003 kPa, x2 = 0.0998	23.496
305.16 K, 4003 kPa, x2 = 0.0998	31.879
305.16 K, 8002 kPa, x2 = 0.2017	80.173
305.16 K, 8998 kPa, x2 = 0.3997	123.489
305.16 K, 10996 kPa, x2 = 0.8988	555.932
305.16 K, 14996 kPa, x2 = 0.0998	137.438
305.16 K, 15000 kPa, x2 = 0.6015	340.932
305.16 K, 18000 kPa, x2 = 0.2017	199.543
305.17 K, 6999 kPa, x2 = 0.6015	117.142
305.17 K, 7000 kPa, x2 = 0.7985	154.794
305.17 K, 10003 kPa, x2 = 0.0998	87.669
305.17 K, 10999 kPa, x2 = 0.0998	97.609
305.17 K, 18001 kPa, x2 = 0.0998	165.624
305.18 K, 4001 kPa, x2 = 0.2017	37.03
305.18 K, 4996 kPa, x2 = 0.3997	60.999
305.18 K, 5001 kPa, x2 = 0.2017	47.235
305.18 K, 6000 kPa, x2 = 0.3997	75.426
305.18 K, 7002 kPa, x2 = 0.3997	90.651
305.18 K, 8000 kPa, x2 = 0.6015	140.462
305.18 K, 9997 kPa, x2 = 0.3997	141.056
305.18 K, 11999 kPa, x2 = 0.7985	429.815
305.18 K, 14999 kPa, x2 = 0.2017	165.099
305.18 K, 18002 kPa, x2 = 0.7985	608.035
305.19 K, 7000 kPa, x2 = 0.2017	68.786
305.19 K, 9001 kPa, x2 = 0.2017	91.841
305.19 K, 9001 kPa, x2 = 0.7985	243.07
305.19 K, 12005 kPa, x2 = 0.6015	253.791
305.2 K, 5004 kPa, x2 = 0.8988	106.835
305.2 K, 10000 kPa, x2 = 0.2017	103.792
305.2 K, 11001 kPa, x2 = 0.7985	369.844
305.2 K, 11998 kPa, x2 = 0.8988	604.408
305.21 K, 8996 kPa, x2 = 0.8988	345.688
305.21 K, 15000 kPa, x2 = 0.8988	683.999
305.22 K, 6000 kPa, x2 = 0.2017	57.81
305.22 K, 8006 kPa, x2 = 0.3997	106.718
305.22 K, 10006 kPa, x2 = 0.6015	193.541
305.23 K, 5002 kPa, x2 = 0.0998	40.525
305.23 K, 6002 kPa, x2 = 0.8988	139.912
305.23 K, 10000 kPa, x2 = 0.7985	303.258
305.24 K, 8000 kPa, x2 = 0.7985	193.79
305.24 K, 17994 kPa, x2 = 0.3997	283.653
308.05 K, 7997 kPa, x2 = 0.8988	229.008
308.06 K, 6995 kPa, x2 = 0.8988	175.453
308.08 K, 10996 kPa, x2 = 0.3997	155.394
308.09 K, 8982 kPa, x2 = 0.8988	306.981
308.11 K, 7002 kPa, x2 = 0.6015	114.28
308.11 K, 7996 kPa, x2 = 0.2017	78.731
308.11 K, 18002 kPa, x2 = 0.8988	711.774
308.12 K, 8003 kPa, x2 = 0.6015	136.504
308.12 K, 11997 kPa, x2 = 0.7985	401.005
308.12 K, 18001 kPa, x2 = 0.2017	195.388
308.12 K, 18004 kPa, x2 = 0.0998	162.496
308.13 K, 8003 kPa, x2 = 0.3997	104.538
308.13 K, 9004 kPa, x2 = 0.2017	90.207
308.13 K, 10002 kPa, x2 = 0.2017	101.87
308.13 K, 11000 kPa, x2 = 0.0998	95.867
308.13 K, 11001 kPa, x2 = 0.6015	214.588
308.13 K, 15001 kPa, x2 = 0.7985	523.511
308.13 K, 15007 kPa, x2 = 0.6015	328.628
308.14 K, 5002 kPa, x2 = 0.2017	46.531
308.14 K, 5997 kPa, x2 = 0.6015	93.812
308.14 K, 6001 kPa, x2 = 0.3997	74.193
308.14 K, 8998 kPa, x2 = 0.6015	160.546
308.14 K, 11000 kPa, x2 = 0.2017	113.723
308.14 K, 11000 kPa, x2 = 0.7985	342.357
308.14 K, 12002 kPa, x2 = 0.6015	243.454
308.14 K, 14996 kPa, x2 = 0.3997	227.135
308.15 K, 3000 kPa, x2 = 0.0998	23.193
308.15 K, 6999 kPa, x2 = 0.0998	57.796
308.15 K, 8996 kPa, x2 = 0.3997	120.739
308.15 K, 14997 kPa, x2 = 0.0998	134.77
308.16 K, 4002 kPa, x2 = 0.2017	36.486
308.16 K, 4004 kPa, x2 = 0.6015	57.94
308.16 K, 4006 kPa, x2 = 0.7985	70.911
308.16 K, 5006 kPa, x2 = 0.3997	60.225
308.16 K, 9001 kPa, x2 = 0.7985	229.843
308.16 K, 9993 kPa, x2 = 0.8988	417.764
308.16 K, 10002 kPa, x2 = 0.6015	186.699
308.16 K, 11997 kPa, x2 = 0.0998	105.588
308.16 K, 15001 kPa, x2 = 0.2017	161.57
308.16 K, 17997 kPa, x2 = 0.3997	276.178
308.17 K, 3998 kPa, x2 = 0.0998	31.42
308.17 K, 5006 kPa, x2 = 0.7985	93.74
308.17 K, 9004 kPa, x2 = 0.0998	76.501
308.17 K, 9994 kPa, x2 = 0.3997	137.721
308.17 K, 18002 kPa, x2 = 0.7985	590.479
308.18 K, 6001 kPa, x2 = 0.2017	56.895
308.18 K, 6999 kPa, x2 = 0.2017	67.631
308.18 K, 8000 kPa, x2 = 0.7985	185.875
308.18 K, 9999 kPa, x2 = 0.0998	86.118
308.19 K, 6002 kPa, x2 = 0.0998	48.761
308.19 K, 6002 kPa, x2 = 0.7985	119.651
308.19 K, 18000 kPa, x2 = 0.6015	395.269
308.2 K, 11998 kPa, x2 = 0.2017	125.636
308.21 K, 5001 kPa, x2 = 0.0998	39.985
308.21 K, 7002 kPa, x2 = 0.7985	149.932
308.22 K, 5002 kPa, x2 = 0.8988	104.568
308.22 K, 5006 kPa, x2 = 0.6015	75.217
308.22 K, 7001 kPa, x2 = 0.3997	88.937
308.22 K, 10003 kPa, x2 = 0.7985	282.745
308.23 K, 4004 kPa, x2 = 0.8988	78.335
308.23 K, 5998 kPa, x2 = 0.8988	135.871
308.23 K, 12000 kPa, x2 = 0.3997	173.174
308.24 K, 8000 kPa, x2 = 0.0998	67.015
308.24 K, 11004 kPa, x2 = 0.8988	513.225
308.26 K, 4003 kPa, x2 = 0.3997	46.849
308.26 K, 14998 kPa, x2 = 0.8988	660.797
308.34 K, 11928 kPa, x2 = 0.8988	563.033
